PubChem BioAssay AID256 (DTP/NCI, 2004)
Values joined by “and” are separate entries in the source; they are usually repeats but may differ in a detail not shown here. Identical values can stand only once. Inconclusive results and toxic doses are left out. How the source made its calls: active means survival T/C of 150% or more; inactive means T/C below 125% in these data.

Tested on: CD2F1 mice, L1210 leukemia ip, survival T/C
Assay: NCI In Vivo Anticancer Drug Screen. Data for tumor model L1210 Leukemia (intraperitoneal) in CD2F1 (CDF1) mice
Conditions: endpoint: mean survival time, higher = longer survival
Summary of the method: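 Antitumor effect is scored in animals hosting a serially transplanted tumor. Values compare compound-dosed animals against vehicle-only controls as a simple quotient.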

[1] = dose: 6.25 mg/kg/injection, schedule: Q01DX009 (ip), vehicle: saline
[2] = dose: 12.5 mg/kg/injection, schedule: Q01DX009 (ip), vehicle: saline
[3] = dose: 25.0 mg/kg/injection, schedule: Q01DX009 (ip), vehicle: saline
[4] = dose: 25.0 mg/kg/injection, schedule: Q04DX003 (ip), vehicle: saline
[5] = dose: 50.0 mg/kg/injection, schedule: Q01DX001 (ip), vehicle: saline
[6] = dose: 100.0 mg/kg/injection, schedule: Q01DX001 (ip), vehicle: saline
[7] = dose: 100.0 mg/kg/injection, schedule: Q04DX003 (ip), vehicle: saline
[8] = dose: 200.0 mg/kg/injection, schedule: Q04DX003 (ip), vehicle: saline
[9] = dose: 400.0 mg/kg/injection, schedule: Q01DX001 (ip), vehicle: saline
[10] = dose: 100.0 mg/kg/injection, schedule: Q01DX009 (ip), vehicle: saline with Tween-80
[11] = dose: 200.0 mg/kg/injection, schedule: Q01DX009 (ip), vehicle: saline with Tween-80
[12] = dose: 200.0 mg/kg/injection, schedule: Q01DX001 (ip), vehicle: saline
[13] = dose: 100.0 mg/kg/injection, schedule: Q04DX003 (ip), vehicle: saline with Tween-80
[14] = dose: 200.0 mg/kg/injection, schedule: Q04DX003 (ip), vehicle: saline with Tween-80
[15] = dose: 400.0 mg/kg/injection, schedule: Q01DX009 (ip), vehicle: saline with Tween-80
[16] = dose: 400.0 mg/kg/injection, schedule: Q04DX003 (ip), vehicle: saline with Tween-80

Measured: T/C

COc1cc(C[C@H]2c3cc(OC)c(OC)cc3CCN2C)c(Oc2cc3c(cc2OC)-c2c(OC)c(OC)cc4c2[C@H](C3)N(C)CC4)cc1OC
inactive: dose: 2.5 mg/kg/injection, schedule: Q03HX016 (ip), vehicle: saline 92 % of control | dose: 2.5 mg/kg/injection, schedule: Q03HX024 (ip), vehicle: saline 94 % of control | dose: 5.0 mg/kg/injection, schedule: Q03HX008 (ip), vehicle: saline 95 % of control | dose: 5.0 mg/kg/injection, schedule: Q03HX016 (ip), vehicle: saline 93 % of control | dose: 5.0 mg/kg/injection, schedule: Q03HX024 (ip), vehicle: saline 91 % of control | [1] 95 % of control | dose: 10.0 mg/kg/injection, schedule: Q03HX008 (ip), vehicle: saline 93 % of control | dose: 10.0 mg/kg/injection, schedule: Q03HX016 (ip), vehicle: saline 91 % of control | dose: 10.0 mg/kg/injection, schedule: Q03HX024 (ip), vehicle: saline 92 % of control | [2] 94 % of control | dose: 12.5 mg/kg/injection, schedule: Q01DX009 (oral), vehicle: saline 98 % of control | dose: 20.0 mg/kg/injection, schedule: Q03HX008 (ip), vehicle: saline 95 % of control | dose: 20.0 mg/kg/injection, schedule: Q03HX016 (ip), vehicle: saline 95 % of control | dose: 20.0 mg/kg/injection, schedule: Q03HX024 (ip), vehicle: saline 96 % of control | [3] 94 % of control | dose: 25.0 mg/kg/injection, schedule: Q01DX009 (oral), vehicle: saline 101 % of control | [4] 98 % of control | dose: 25.0 mg/kg/injection, schedule: Q08DX002 (ip), vehicle: saline 92 % of control | dose: 40.0 mg/kg/injection, schedule: Q03HX008 (ip), vehicle: saline 97 % of control | dose: 40.0 mg/kg/injection, schedule: Q03HX016 (ip), vehicle: saline 93 % of control | dose: 40.0 mg/kg/injection, schedule: Q03HX024 (ip), vehicle: saline 89 % of control | [5] 87 % of control | dose: 50.0 mg/kg/injection, schedule: Q01DX009 (ip), vehicle: saline 94 % of control | dose: 50.0 mg/kg/injection, schedule: Q01DX009 (oral), vehicle: saline 96 % of control | dose: 50.0 mg/kg/injection, schedule: Q04DX003 (ip), vehicle: saline 98 % of control | dose: 50.0 mg/kg/injection, schedule: Q08DX002 (ip), vehicle: saline 94 % of control | dose: 80.0 mg/kg/injection, schedule: Q03HX008 (ip), vehicle: saline 98 % of control | [6] 87 % of control | dose: 100.0 mg/kg/injection, schedule: Q01DX001 (oral), vehicle: saline 101 % of control | dose: 100.0 mg/kg/injection, schedule: Q01DX009 (ip), vehicle: saline 94 % of control | dose: 100.0 mg/kg/injection, schedule: Q01DX009 (oral), vehicle: saline 106 % of control | [7] 95 % of control | dose: 100.0 mg/kg/injection, schedule: Q08DX002 (ip), vehicle: saline 92 % of control | dose: 200.0 mg/kg/injection, schedule: Q01DX001 (oral), vehicle: saline 101 % of control | dose: 200.0 mg/kg/injection, schedule: Q01DX009 (oral), vehicle: saline 109 % of control | [8] 105 % of control | dose: 200.0 mg/kg/injection, schedule: Q08DX002 (ip), vehicle: saline 94 % of control | [9] 89 % of control | dose: 400.0 mg/kg/injection, schedule: Q01DX001 (oral), vehicle: saline 103 % of control | dose: 400.0 mg/kg/injection, schedule: Q08DX002 (ip), vehicle: saline 90 % of control | dose: 800.0 mg/kg/injection, schedule: Q01DX001 (ip), vehicle: saline 90 % of control | dose: 800.0 mg/kg/injection, schedule: Q01DX001 (oral), vehicle: saline 104 % of control | dose: 1600.0 mg/kg/injection, schedule: Q01DX001 (oral), vehicle: saline 102 % of control

NNC(=S)Nc1ccccc1
inactive: dose: 20.0 mg/kg/injection, schedule: Q04DX003 (ip), vehicle: saline with Tween-80 98 % of control

CS(=O)(=O)OC1CCCSc2ccccc21 (stereo not given)
inactive: dose: 100.0 mg/kg/injection, schedule: Q01DX001 (ip), vehicle: carboxymethylcellulose (CMC) 103 % of control | dose: 200.0 mg/kg/injection, schedule: Q01DX001 (ip), vehicle: carboxymethylcellulose (CMC) 97 % of control | dose: 400.0 mg/kg/injection, schedule: Q01DX001 (ip), vehicle: carboxymethylcellulose (CMC) 97 % of control

COc1ccc(-c2c(O)c3c(OC)cc(OC)cc3oc2=O)cc1
inactive: dose: 50.0 mg/kg/injection, schedule: Q01DX009 (ip), vehicle: saline with Tween-80 100 % of control | [10] 93 % of control | [11] 103 % of control

ON(C(=Nc1ccc(Cl)cc1)c1ccccc1)c1ccccc1
inactive: [6] 105 % of control | [7] 100 % of control | [12] 97 % of control | [8] 102 % of control | [9] 100 % of control | dose: 400.0 mg/kg/injection, schedule: Q04DX003 (ip), vehicle: saline 100 % of control

CC1C2CC3C(OC(=O)C13)C2I (stereo not given)
inactive: [10] 95 % of control | [13] 95 % of control | [11] 86 % of control | [14] 89 % of control | [15] 92 % of control | [16] 87 % of control

O=C(CNC(=O)c1ccccc1)N/N=C/Cc1ccccc1
inactive: [10] 97 % of control | [11] 104 % of control | [15] 104 % of control

C/C=C(\Cl)C1=CC(=O)C23CC2C2(C)COC1(O)C3(O)O2 (stereo not given)
inactive: dose: 1.5 mg/kg/injection, schedule: Q01DX009 (ip), vehicle: saline with Tween-80 93 % of control | dose: 3.0 mg/kg/injection, schedule: Q01DX009 (ip), vehicle: saline with Tween-80 93 % of control | dose: 6.0 mg/kg/injection, schedule: Q01DX009 (ip), vehicle: saline with Tween-80 110 % of control

O=S(=O)(O)SNCCN1CCOCC1
inactive: [1] 106 % of control | dose: 6.25 mg/kg/injection, schedule: Q04DX003 (ip), vehicle: saline 104 % of control | [2] 98 % of control | dose: 12.5 mg/kg/injection, schedule: Q04DX003 (ip), vehicle: saline 102 % of control | [3] 107 % of control | [4] 101 % of control

C(#CC[P+](c1ccccc1)(c1ccccc1)c1ccccc1)C[P+](c1ccccc1)(c1ccccc1)c1ccccc1
inactive: dose: 0.78 mg/kg/injection, schedule: Q01DX009 (ip), vehicle: Klucel (hydroxypropylcellulose) (HPC) 92 % of control | dose: 1.56 mg/kg/injection, schedule: Q01DX009 (ip), vehicle: Klucel (hydroxypropylcellulose) (HPC) 92 % of control | dose: 3.12 mg/kg/injection, schedule: Q01DX009 (ip), vehicle: Klucel (hydroxypropylcellulose) (HPC) 90 % of control | dose: 6.25 mg/kg/injection, schedule: Q01DX009 (ip), vehicle: Klucel (hydroxypropylcellulose) (HPC) 101 % of control | dose: 12.5 mg/kg/injection, schedule: Q01DX009 (ip), vehicle: Klucel (hydroxypropylcellulose) (HPC) 93 % of control and 107 % of control

CNCc1c[nH]c(=O)[nH]c1=O
inactive: [13] 102 % of control | [14] 98 % of control | [16] 94 % of control

Cc1nc2ccccn2c(=O)c1Br
inactive: [5] 104 % of control | [6] 104 % of control | [12] 104 % of control
